Data taken from US20100041089A1, “IMPROVED METHOD FOR DETECTING CHEMICAL […]” (priority 2006, published 2010).

System: yeast genes (expressed mRNA)
Assay: DNA chip measurement of expressed mRNA of yeast genes after culture with a toxic chemical substance
Format: cell-based, Saccharomyces cerevisiae S288C
Conditions: for level of expressed mRNA in the presence of chemical substance / level in the absence of chemical substance: cultured two hours with the chemical substance; for The level of expressed mRNA in the presence of chemical substance/The level of expressed mRNA in the absence of chemical substance: cultured two hours with substance
Experimental: Yeast (Saccharomyces cerevisiae S288C (a SUC2mal mel gap2 CUP1)) were cultured at 25° C. on YPD medium (yeast extract 1%, polypeptone 2%, glucose 2%). One of toxic chemical substances was added to the cell at logarithmic growth phase, and the cell was further cultured for two hours. Cell was cultured without any chemical substance in the same condition, and was used as a control. Concentrations of the chemical substances were defined to inhibit the growth of the yeast but not lead to death.
After the completion of cultivation, the culture was centrifuged to collect the cells. To the cells, sodium acetate buffer (50 mM sodium acetate, 10 mM EDTA, 1% SDS) was added, and the mixture was shaken at 65° C. for five minutes, followed by returning to room temperature, and obtaining the supernatant, which procedure was repeated two times. To the supernatant, ½ amount of a solution of phenol/chloroform (1:1) was added, and the mixture was centrifuged to give a supernatant, an equal amount of chloroform was added, and the mixture was centrifuged to give a supernatant. To the supernatant, an equal amount of isopropanol containing 0.3 M sodium acetate was added, and the mixture was allowed to stand at room temperature for 30 minutes, after which the mixture was centrifuged to give sediment of the whole RNAs. Seventy % ethanol was added to the sediment, and the mixture was again centrifuged to give sediment, which was then dried and dissolved in water. mRNA was isolated from the whole RNAs as followings. In view of the fact that a poly A chain is attached to the 3′ terminus of mRNA, a polynucleotide having a poly T structure which was immobilized on the surface of latex beads was used to trap the mRNA, and then the mRNA was washed and eluted with spine column (Oligotex-dT30<Super>mRNA Purification Kit, Takara). Reverse transcription of the mRNA was conducted with a reverse transcriptase (Super Script II Reverse Transcriptase; catalogue No. 18064-014, GibcoBRL) using fluorescence-labeled nucleotides to give cDNAs that were introduced with Cy3-dUTP or Cy5-dUTP during the reverse transcription.
The labeled cDNAs were dissolved in TE buffer (10 mM Tris-HCl/1 mM EDTA, pH 8.0), and the solution was dropped on the DNA chip containing the whole genes of yeast (DNA Chip Research Inc. Japan) so that the cDNAs were hybridized on the DNA chip at 65° C. for over 12 hours. The fluoresces intensity of the DNA chip was read with a scanner, and the ratio relative to the fluorescence intensity resulting from the absence of chemical substance was estimated as the following, which is shown in Tables 1 to 9.
In the Tables, “Intensity” indicated in the rightmost column is a value of the level of expressed mRNA of each gene in control cells as divided by the average level of the expressions of the whole genes. A gene of which mRNA level is lower in control, and is higher in cases of addition of chemical substance, is especially useful in the detection of toxic substances.
Here, when a ratio of an amount of mRNA expressed in the presence of the chemical substance to an amount of mRNA expressed in the absence of the chemical substance is two or more, then it is considered significant.

Q: With `Cl[C@H]1[C@H](Cl)[C@@H](Cl)[C@@H](Cl)[C@H](Cl)[C@H]1Cl` [(7), γ-Hexachlorocyclohexane] as the compound, how does the “level of expressed mRNA in the presence of chemical substance / level in the absence of chemical substance” value (yeast gene YDR133C) read?
A: Its value is 0.2.

Q: And the “level of expressed mRNA in the presence of chemical substance / level in the absence of chemical substance” value (yeast gene YDR250C)?
A: The value was 1.0.

Q: And the “level of expressed mRNA in the presence of chemical substance / level in the absence of chemical substance” value (yeast gene YDR278C)?
A: The value was 0.7.

Q: And the “level of expressed mRNA in the presence of chemical substance / level in the absence of chemical substance” value (yeast gene YDR281C)?
A: The value was 0.6.

Q: And the “The level of expressed mRNA in the presence of chemical substance/The level of expressed mRNA in the absence of chemical substance” value (yeast gene YDR330W)?
A: Its value is 1.3.

Q: And the “level of expressed mRNA in the presence of chemical substance / level in the absence of chemical substance” value (yeast gene YDR366C)?
A: The value was 1.5.

Q: And the “The level of expressed mRNA in the presence of chemical substance/The level of expressed mRNA in the absence of chemical substance” value (yeast gene YDR411C)?
A: The value was 2.0.

Q: And the “The level of expressed mRNA in the presence of chemical substance/The level of expressed mRNA in the absence of chemical substance” value (yeast gene YDR511W)?
A: The value was 1.5.

Q: What about the “The level of expressed mRNA in the presence of chemical substance/The level of expressed mRNA in the absence of chemical substance” value (yeast gene YDR545W) of the same compound?
A: The value was 1.2.

Q: What about the “The level of expressed mRNA in the presence of chemical substance/The level of expressed mRNA in the absence of chemical substance” value (yeast gene YEL001C) of the same compound?
A: Its value is 1.1.

Q: And the “The level of expressed mRNA in the presence of chemical substance/The level of expressed mRNA in the absence of chemical substance” value (yeast gene YER004W)?
A: Its value is 1.4.

Q: And the “The level of expressed mRNA in the presence of chemical substance/The level of expressed mRNA in the absence of chemical substance” value (yeast gene YER035W)?
A: The value was 1.9.

Q: What about the “The level of expressed mRNA in the presence of chemical substance/The level of expressed mRNA in the absence of chemical substance” value (yeast gene YER079W) of the same compound?
A: The value was 1.9.

Q: What about the “The level of expressed mRNA in the presence of chemical substance/The level of expressed mRNA in the absence of chemical substance” value (yeast gene YER106W) of the same compound?
A: The value was 1.0.

Q: And the “The level of expressed mRNA in the presence of chemical substance/The level of expressed mRNA in the absence of chemical substance” value (yeast gene YER158C)?
A: The value was 1.2.

Q: And the “The level of expressed mRNA in the presence of chemical substance/The level of expressed mRNA in the absence of chemical substance” value (yeast gene YER163C)?
A: Its value is 1.5.

Q: And the “The level of expressed mRNA in the presence of chemical substance/The level of expressed mRNA in the absence of chemical substance” value (yeast gene YER175C)?
A: Its value is 2.3.

Q: And the “The level of expressed mRNA in the presence of chemical substance/The level of expressed mRNA in the absence of chemical substance” value (yeast gene YFL006W)?
A: Its value is 1.0.

Q: What about the “The level of expressed mRNA in the presence of chemical substance/The level of expressed mRNA in the absence of chemical substance” value (yeast gene YFL010C) of the same compound?
A: The value was 1.5.

Q: What about the “The level of expressed mRNA in the presence of chemical substance/The level of expressed mRNA in the absence of chemical substance” value (yeast gene YFL024C) of the same compound?
A: The value was 3.3.

Q: And the “The level of expressed mRNA in the presence of chemical substance/The level of expressed mRNA in the absence of chemical substance” value (yeast gene YFL032W)?
A: The value was 1.1.

Q: And the “level of expressed mRNA in the presence of chemical substance / level in the absence of chemical substance” value (yeast gene YFR026C)?
A: The value was 1.3.

Q: And the “The level of expressed mRNA in the presence of chemical substance/The level of expressed mRNA in the absence of chemical substance” value (yeast gene YGL037C)?
A: Its value is 2.9.

Q: And the “The level of expressed mRNA in the presence of chemical substance/The level of expressed mRNA in the absence of chemical substance” value (yeast gene YGL047W)?
A: Its value is 1.7.

Q: And the “The level of expressed mRNA in the presence of chemical substance/The level of expressed mRNA in the absence of chemical substance” value (yeast gene YGL053W)?
A: The value was 3.7.

Q: What about the “level of expressed mRNA in the presence of chemical substance / level in the absence of chemical substance” value (yeast gene YGL088W) of the same compound?
A: The value was 1.0.

Q: What about the “The level of expressed mRNA in the presence of chemical substance/The level of expressed mRNA in the absence of chemical substance” value (yeast gene YGL121C) of the same compound?
A: Its value is 4.7.

Q: What about the “The level of expressed mRNA in the presence of chemical substance/The level of expressed mRNA in the absence of chemical substance” value (yeast gene YGL199C) of the same compound?
A: Its value is 1.3.

Q: What about the “level of expressed mRNA in the presence of chemical substance / level in the absence of chemical substance” value (yeast gene YGR038W) of the same compound?
A: Its value is 1.1.

Q: What about the “The level of expressed mRNA in the presence of chemical substance/The level of expressed mRNA in the absence of chemical substance” value (yeast gene YGR101W) of the same compound?
A: The value was 1.5.

Q: And the “The level of expressed mRNA in the presence of chemical substance/The level of expressed mRNA in the absence of chemical substance” value (yeast gene YGR110W)?
A: The value was 1.7.

Q: And the “The level of expressed mRNA in the presence of chemical substance/The level of expressed mRNA in the absence of chemical substance” value (yeast gene YGR130C)?
A: Its value is 1.3.

Q: And the “level of expressed mRNA in the presence of chemical substance / level in the absence of chemical substance” value (yeast gene YGR139W)?
A: Its value is 0.8.

Q: What about the “The level of expressed mRNA in the presence of chemical substance/The level of expressed mRNA in the absence of chemical substance” value (yeast gene YGR154C) of the same compound?
A: The value was 2.0.

Q: And the “The level of expressed mRNA in the presence of chemical substance/The level of expressed mRNA in the absence of chemical substance” value (yeast gene YGR221C)?
A: Its value is 1.2.

Q: What about the “level of expressed mRNA in the presence of chemical substance / level in the absence of chemical substance” value (yeast gene YGR243W) of the same compound?
A: Its value is 1.9.

Q: What about the “level of expressed mRNA in the presence of chemical substance / level in the absence of chemical substance” value (yeast gene YGR293C) of the same compound?
A: The value was 1.3.

Q: And the “level of expressed mRNA in the presence of chemical substance / level in the absence of chemical substance” value (yeast gene YHL006C)?
A: The value was 1.2.

Q: And the “level of expressed mRNA in the presence of chemical substance / level in the absence of chemical substance” value (yeast gene YHR095W)?
A: Its value is 0.8.

Q: And the “level of expressed mRNA in the presence of chemical substance / level in the absence of chemical substance” value (yeast gene YHR105W)?
A: The value was 0.9.

Q: And the “The level of expressed mRNA in the presence of chemical substance/The level of expressed mRNA in the absence of chemical substance” value (yeast gene YHR138C)?
A: Its value is 3.0.

Q: What about the “level of expressed mRNA in the presence of chemical substance / level in the absence of chemical substance” value (yeast gene YHR181W) of the same compound?
A: Its value is 0.8.

Q: What about the “The level of expressed mRNA in the presence of chemical substance/The level of expressed mRNA in the absence of chemical substance” value (yeast gene YHR199C) of the same compound?
A: Its value is 1.1.

Q: And the “The level of expressed mRNA in the presence of chemical substance/The level of expressed mRNA in the absence of chemical substance” value (yeast gene YIL023C)?
A: Its value is 1.2.

Q: What about the “The level of expressed mRNA in the presence of chemical substance/The level of expressed mRNA in the absence of chemical substance” value (yeast gene YIL041W) of the same compound?
A: The value was 0.8.

Q: And the “The level of expressed mRNA in the presence of chemical substance/The level of expressed mRNA in the absence of chemical substance” value (yeast gene YIL087C)?
A: Its value is 1.8.

Q: And the “level of expressed mRNA in the presence of chemical substance / level in the absence of chemical substance” value (yeast gene YIL127C)?
A: The value was 0.6.

Q: And the “level of expressed mRNA in the presence of chemical substance / level in the absence of chemical substance” value (yeast gene YJL017W)?
A: Its value is 0.2.

Q: What about the “level of expressed mRNA in the presence of chemical substance / level in the absence of chemical substance” value (yeast gene YJL037W) of the same compound?
A: Its value is 1.2.

Q: What about the “The level of expressed mRNA in the presence of chemical substance/The level of expressed mRNA in the absence of chemical substance” value (yeast gene YJL057C) of the same compound?
A: Its value is 2.7.

Q: And the “The level of expressed mRNA in the presence of chemical substance/The level of expressed mRNA in the absence of chemical substance” value (yeast gene YJL066C)?
A: Its value is 1.6.

Q: And the “The level of expressed mRNA in the presence of chemical substance/The level of expressed mRNA in the absence of chemical substance” value (yeast gene YJL082W)?
A: Its value is 0.4.

Q: And the “level of expressed mRNA in the presence of chemical substance / level in the absence of chemical substance” value (yeast gene YJL097W)?
A: The value was 1.0.
